This passage reports inhibition, GI50 and antiproliferative activity results from patent US10245261B2, “Substituted indol-5-ol derivatives and their therapeutic applications” (NantBioScience, Inc., priority 2013, dated 2019).

One experiment addresses MKK6(h) (Homo sapiens, UniProt P52564). The experiment in a line: KinaseProfiler kinase assay. The format is biochemical. An outline of the steps: (§1)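 Using a filter-binding 33P format, reactions initiated by MgATP addition proceeded 40 min at room temperature before a 3% phosphoric acid stop. Filtermats were washed three times in 50 mM phosphoric acid and once in methanol, dried and counted.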

In the next experiment the target is MLCK(h) (Homo sapiens, UniProt Q9H1R3). The experiment in a line: KinaseProfiler kinase assay. The class given is biochemical. An outline of the steps:
as §1

In another experiment the target is PrKX(h) (Homo sapiens, UniProt P51817). The experiment is described as follows: KinaseProfiler kinase assay. The class given is biochemical. In short, it runs like this:
as §1

The target of a further experiment is cKit(h) (Homo sapiens, UniProt P10721). The experiment is described as follows: KinaseProfiler kinase assay. The class given is biochemical. In short, it runs like this:
as §1

For the next experiment, the target named is BRK(h) (Homo sapiens, UniProt Q13882). The experiment in a line: KinaseProfiler kinase assay. The class given is biochemical.
Sequence of BRK(h) (Q13882 whole entry): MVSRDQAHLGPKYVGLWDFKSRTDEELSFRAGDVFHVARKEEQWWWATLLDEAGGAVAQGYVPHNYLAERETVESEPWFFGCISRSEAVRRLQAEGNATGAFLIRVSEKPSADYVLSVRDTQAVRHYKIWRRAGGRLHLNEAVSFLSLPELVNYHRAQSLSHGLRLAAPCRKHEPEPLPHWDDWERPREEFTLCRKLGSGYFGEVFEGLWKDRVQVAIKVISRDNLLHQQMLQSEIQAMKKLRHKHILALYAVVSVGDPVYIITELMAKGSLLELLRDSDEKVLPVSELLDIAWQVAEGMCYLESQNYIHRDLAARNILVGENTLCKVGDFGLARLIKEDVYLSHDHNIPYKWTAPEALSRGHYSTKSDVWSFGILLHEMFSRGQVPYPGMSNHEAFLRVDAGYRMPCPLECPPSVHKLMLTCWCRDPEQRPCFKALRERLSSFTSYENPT
A further experiment deals with CHK2(R145W)(h) (Homo sapiens, UniProt O96017, R145W). The experiment in a line: KinaseProfiler kinase assay. The format is biochemical.
Sequence of CHK2(R145W)(h) (O96017 whole entry R145W): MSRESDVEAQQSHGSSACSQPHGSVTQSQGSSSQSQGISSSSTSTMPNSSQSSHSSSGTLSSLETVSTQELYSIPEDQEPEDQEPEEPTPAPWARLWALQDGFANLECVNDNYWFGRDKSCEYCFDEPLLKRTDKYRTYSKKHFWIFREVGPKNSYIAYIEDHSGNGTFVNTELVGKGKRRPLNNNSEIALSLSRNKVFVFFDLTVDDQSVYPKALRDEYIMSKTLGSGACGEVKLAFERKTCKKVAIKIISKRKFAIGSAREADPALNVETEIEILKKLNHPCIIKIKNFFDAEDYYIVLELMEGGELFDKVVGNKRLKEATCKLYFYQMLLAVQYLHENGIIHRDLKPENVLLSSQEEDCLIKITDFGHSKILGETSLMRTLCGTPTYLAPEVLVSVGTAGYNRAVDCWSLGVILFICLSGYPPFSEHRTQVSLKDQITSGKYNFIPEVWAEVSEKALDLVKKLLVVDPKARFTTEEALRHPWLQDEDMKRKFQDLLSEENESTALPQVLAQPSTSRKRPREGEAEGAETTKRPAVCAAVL
For another experiment, the target named is CLK2(h) (Homo sapiens, UniProt P49760). The experiment is described as follows: KinaseProfiler kinase assay. The class given is biochemical.
Sequence of CLK2(h) (P49760 whole entry): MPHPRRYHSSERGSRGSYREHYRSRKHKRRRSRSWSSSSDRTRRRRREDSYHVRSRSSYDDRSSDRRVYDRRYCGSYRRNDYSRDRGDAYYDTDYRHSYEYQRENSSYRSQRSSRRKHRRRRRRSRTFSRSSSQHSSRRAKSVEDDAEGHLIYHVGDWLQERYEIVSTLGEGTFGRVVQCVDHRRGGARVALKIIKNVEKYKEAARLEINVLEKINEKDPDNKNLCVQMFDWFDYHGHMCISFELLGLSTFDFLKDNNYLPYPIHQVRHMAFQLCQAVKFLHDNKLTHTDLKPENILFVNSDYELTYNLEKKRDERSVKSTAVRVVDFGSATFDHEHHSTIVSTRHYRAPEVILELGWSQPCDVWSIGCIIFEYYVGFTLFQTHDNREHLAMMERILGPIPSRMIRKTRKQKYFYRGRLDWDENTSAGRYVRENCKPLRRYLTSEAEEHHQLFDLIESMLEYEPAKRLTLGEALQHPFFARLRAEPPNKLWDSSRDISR
A further experiment deals with GCK(h) (Homo sapiens, UniProt Q12851). The experiment in a line: KinaseProfiler kinase assay. The format is biochemical.
The next experiment deals with IR(h), activated (Homo sapiens, UniProt P06213). The experiment is described as follows: KinaseProfiler kinase assay. The class given is biochemical.
Sequence of IR(h), activated (P06213 1005-1310): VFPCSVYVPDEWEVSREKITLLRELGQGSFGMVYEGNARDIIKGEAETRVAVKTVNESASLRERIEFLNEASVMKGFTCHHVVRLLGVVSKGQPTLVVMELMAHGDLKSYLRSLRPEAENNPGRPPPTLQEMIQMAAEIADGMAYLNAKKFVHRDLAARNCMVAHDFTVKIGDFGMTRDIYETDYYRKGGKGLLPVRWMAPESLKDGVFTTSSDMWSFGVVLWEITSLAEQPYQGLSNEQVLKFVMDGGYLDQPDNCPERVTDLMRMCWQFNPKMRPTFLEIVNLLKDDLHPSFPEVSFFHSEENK
Experiment [1] deals with PI3 Kinase (p110β/p85α)(h) (Homo sapiens, UniProt P42338). The experiment in a line: KinaseProfiler kinase assay. The format is biochemical.
Sequence of PI3 Kinase (p110β/p85α)(h) (P42338 whole entry): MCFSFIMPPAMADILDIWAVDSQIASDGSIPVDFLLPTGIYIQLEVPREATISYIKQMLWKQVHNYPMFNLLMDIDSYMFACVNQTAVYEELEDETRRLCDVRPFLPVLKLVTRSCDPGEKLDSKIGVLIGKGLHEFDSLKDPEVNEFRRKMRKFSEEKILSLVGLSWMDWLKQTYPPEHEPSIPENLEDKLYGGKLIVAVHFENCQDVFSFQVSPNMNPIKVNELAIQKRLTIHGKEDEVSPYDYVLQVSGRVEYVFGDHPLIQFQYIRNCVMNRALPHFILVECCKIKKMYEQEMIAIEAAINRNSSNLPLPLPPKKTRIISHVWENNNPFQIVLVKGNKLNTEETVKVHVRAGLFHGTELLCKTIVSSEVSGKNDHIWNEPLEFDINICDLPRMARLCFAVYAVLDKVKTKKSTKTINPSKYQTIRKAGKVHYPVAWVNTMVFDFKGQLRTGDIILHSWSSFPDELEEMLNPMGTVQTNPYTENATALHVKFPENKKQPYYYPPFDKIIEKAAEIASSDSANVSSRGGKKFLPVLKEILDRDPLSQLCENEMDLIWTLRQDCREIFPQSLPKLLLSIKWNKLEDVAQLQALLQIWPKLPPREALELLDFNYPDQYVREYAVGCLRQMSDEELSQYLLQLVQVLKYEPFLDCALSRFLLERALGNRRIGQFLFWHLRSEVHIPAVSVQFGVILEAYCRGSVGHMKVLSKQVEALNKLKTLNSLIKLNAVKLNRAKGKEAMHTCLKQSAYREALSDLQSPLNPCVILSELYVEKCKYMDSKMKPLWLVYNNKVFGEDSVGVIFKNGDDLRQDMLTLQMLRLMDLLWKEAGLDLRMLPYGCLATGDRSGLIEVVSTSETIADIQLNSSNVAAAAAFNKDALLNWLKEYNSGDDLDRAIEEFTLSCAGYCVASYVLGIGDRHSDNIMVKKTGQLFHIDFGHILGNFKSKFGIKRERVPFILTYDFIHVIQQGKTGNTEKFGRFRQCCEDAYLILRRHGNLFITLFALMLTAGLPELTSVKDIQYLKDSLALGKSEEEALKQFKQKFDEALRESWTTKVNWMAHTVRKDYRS
Sequence of PI3 Kinase (p110β/p85α)(h) (P27986 whole entry partner): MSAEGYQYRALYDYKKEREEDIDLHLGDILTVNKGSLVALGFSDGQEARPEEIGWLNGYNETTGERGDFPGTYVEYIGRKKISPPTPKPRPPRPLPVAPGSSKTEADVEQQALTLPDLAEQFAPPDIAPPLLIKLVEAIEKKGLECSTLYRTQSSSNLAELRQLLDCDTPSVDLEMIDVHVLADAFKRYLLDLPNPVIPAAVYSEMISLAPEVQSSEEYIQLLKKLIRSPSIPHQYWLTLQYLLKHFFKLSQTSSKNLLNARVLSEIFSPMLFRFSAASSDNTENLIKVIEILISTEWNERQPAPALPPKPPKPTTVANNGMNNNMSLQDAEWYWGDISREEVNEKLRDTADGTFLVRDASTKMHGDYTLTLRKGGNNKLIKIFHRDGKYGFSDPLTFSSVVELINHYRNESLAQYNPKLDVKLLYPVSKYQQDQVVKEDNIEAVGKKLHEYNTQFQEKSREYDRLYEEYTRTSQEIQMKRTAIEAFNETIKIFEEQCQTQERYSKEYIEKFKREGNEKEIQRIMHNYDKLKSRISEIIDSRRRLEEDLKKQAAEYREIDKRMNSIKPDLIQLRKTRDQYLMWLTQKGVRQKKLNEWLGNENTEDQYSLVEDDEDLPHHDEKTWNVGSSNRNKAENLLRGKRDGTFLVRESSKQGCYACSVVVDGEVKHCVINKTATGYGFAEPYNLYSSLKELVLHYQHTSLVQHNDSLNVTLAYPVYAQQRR
Experiment [2] has as its system NCI 60 cancer cell line panel. The experiment is described as follows: NCI-60 DTP Human Tumor Cell Line Panel, SRB growth inhibition. The format is cell-based. As to conditions: for GI50: Homo sapiens. The procedure: The human tumor cell lines of the cancer screening panel are grown in RPMI 1640 medium containing 5% fetal bovine serum and 2 mM L-glutamine. For a typical screening experiment, cells are inoculated into 96 well microtiter plates in 100 μL at plating densities ranging from 5,000 to 40,000 cells/well depending on the doubling time of individual cell lines. After cell inoculation, the microtiter plates are incubated at 37° C., 5% CO2, 95% air and 100% relative humidity for 24 h prior to addition of experimental drugs.
After 24 h, two plates of each cell line are fixed in situ with TCA, to represent a measurement of the cell population for each cell line at the time of drug addition (Tz). Experimental drugs are solubilized in dimethyl sulfoxide at 400-fold the desired final maximum test concentration and stored frozen prior to use. At the time of drug addition, an aliquot of frozen concentrate is thawed and diluted to twice the desired final maximum test concentration with complete medium containing 50 μg/ml gentamicin. Additional four, 10-fold or ½ log serial dilutions are made to provide a total of five drug concentrations plus control. Aliquots of 100 μl of these different drug dilutions are added to the appropriate microtiter wells already containing 100 μl of medium, resulting in the required final drug concentrations.
Following drug addition, the plates are incubated for an additional 48 h at 37° C., 5% CO2, 95% air, and 100% relative humidity. For adherent cells, the assay is terminated by the addition of cold TCA. Cells are fixed in situ by the gentle addition of 50 μl of cold 50% (w/v) TCA (final concentration, 10% TCA) and incubated for 60 minutes at 4° C. The supernatant is discarded, and the plates are washed five times with tap water and air dried. Sulforhodamine B (SRB) solution (100 μl) at 0.4% (w/v) in 1% acetic acid is added to each well, and plates are incubated for 10 minutes at room temperature. After staining, unbound dye is removed by washing five times with 1% acetic acid and the plates are air dried. Bound stain is subsequently solubilized with 10 mM trizma base, and the absorbance is read on an automated plate reader at a wavelength of 515 nm. For suspension cells, the methodology is the same except that the assay is terminated by fixing settled cells at the bottom of the wells by gently adding 50 μl of 80% TCA (final concentration, 16% TCA). Using the seven absorbance measurements [time zero, (Tz), control growth, (C), and test growth in the presence of drug at the five concentration levels (Ti)], the percentage growth is calculated at each of the drug concentrations levels. Percentage growth inhibition is calculated as: [(Ti−Tz)/(C−Tz)]×100 for concentrations for which Ti>/=Tz [(Ti−Tz)/Tz]×100 for concentrations for which Ti<Tz.
Three dose response parameters are calculated for each experimental agent.

The structures appear in SMILES notation. Where two headings read alike, the source gives them in different places.

Sequence of cKit(h) (P10721 26-976): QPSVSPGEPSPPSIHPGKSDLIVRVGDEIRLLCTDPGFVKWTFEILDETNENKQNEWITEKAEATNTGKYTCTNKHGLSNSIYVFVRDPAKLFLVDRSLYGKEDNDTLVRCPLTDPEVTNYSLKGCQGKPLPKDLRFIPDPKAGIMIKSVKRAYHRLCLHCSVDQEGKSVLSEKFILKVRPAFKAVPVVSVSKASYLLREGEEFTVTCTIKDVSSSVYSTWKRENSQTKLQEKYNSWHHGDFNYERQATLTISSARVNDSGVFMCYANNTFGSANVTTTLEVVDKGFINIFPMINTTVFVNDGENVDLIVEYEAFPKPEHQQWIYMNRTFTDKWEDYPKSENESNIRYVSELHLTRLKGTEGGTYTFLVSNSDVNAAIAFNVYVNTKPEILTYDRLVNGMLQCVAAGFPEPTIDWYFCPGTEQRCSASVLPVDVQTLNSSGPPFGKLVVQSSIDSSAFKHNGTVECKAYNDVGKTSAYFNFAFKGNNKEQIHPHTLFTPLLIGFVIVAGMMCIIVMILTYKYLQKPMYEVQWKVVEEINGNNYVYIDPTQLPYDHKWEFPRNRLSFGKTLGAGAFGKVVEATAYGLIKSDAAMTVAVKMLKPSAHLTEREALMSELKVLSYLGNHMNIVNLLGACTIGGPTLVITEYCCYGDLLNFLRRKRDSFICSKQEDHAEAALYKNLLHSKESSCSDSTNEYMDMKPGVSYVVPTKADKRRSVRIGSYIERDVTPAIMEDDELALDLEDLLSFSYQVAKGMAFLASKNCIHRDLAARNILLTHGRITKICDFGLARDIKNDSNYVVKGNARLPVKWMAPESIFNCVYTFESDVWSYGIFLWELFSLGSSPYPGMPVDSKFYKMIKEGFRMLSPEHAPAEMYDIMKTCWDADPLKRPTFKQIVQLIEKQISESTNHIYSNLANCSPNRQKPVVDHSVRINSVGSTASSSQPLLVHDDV
Sequence of PrKX(h) (P51817 whole entry): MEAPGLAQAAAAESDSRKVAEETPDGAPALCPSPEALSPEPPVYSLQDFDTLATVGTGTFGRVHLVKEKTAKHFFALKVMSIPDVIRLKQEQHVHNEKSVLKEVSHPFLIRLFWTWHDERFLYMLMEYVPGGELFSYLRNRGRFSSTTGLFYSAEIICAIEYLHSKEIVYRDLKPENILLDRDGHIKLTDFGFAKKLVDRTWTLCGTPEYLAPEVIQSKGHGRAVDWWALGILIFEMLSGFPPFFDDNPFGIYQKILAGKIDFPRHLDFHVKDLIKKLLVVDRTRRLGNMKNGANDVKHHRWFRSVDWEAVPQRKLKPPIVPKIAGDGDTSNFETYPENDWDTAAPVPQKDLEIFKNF

As for `Cc1cc2c(F)c(Oc3nc(Nc4cc(C5CC5)[nH]n4)cc(N4CCN(C)CC4)n3)ccc2[nH]1` [Compound 10], the inhibition (as a rule, the change of the read-out against control, counted positive when it falls) at 0.1 µM at MKK6(h) was -5%; against MLCK(h) it was 0%; against PrKX(h), 13%; against cKit(h) it was 0%; against BRK(h), 54%; on CHK2(R145W)(h), 22%. Also, the inhibition at 0.1 µM at CLK2(h) was determined as 29%; against GCK(h), 79%; against IR(h), activated it was 73%; in [1], 0%.
For the molecule `Cc1cc2c(F)c(Oc3nc(Nc4cc(C5CC5)[nH]n4)cc(N4CCNCC4)n3)ccc2[nH]1` [Compound 11, N-(5-cyclopropyl-1H-pyrazol-3-yl)-2-((4-fluoro-2-methyl-1H-indol-5-yl)oxy)-6-(piperazin-1-yl)pyrimidin-4-amine], the inhibition at 0.1 µM against MKK6(h) was -13%; at MLCK(h) it was 0%; against PrKX(h) it was 35%; on cKit(h), 24%; at BRK(h) it was 73%; against CHK2(R145W)(h), 6%. The inhibition at 0.1 µM on CLK2(h) is -3%; against GCK(h), 85%; against IR(h), activated, 71%; in experiment [1] it was -1%.
As to `C/C=C/c1cc(Nc2cc(N3CCN(C)CC3)nc(Oc3ccc4[nH]c(C)cc4c3F)n2)n[nH]1` [Compound 53], the GI50 (in general, the concentration at which growth is held to half of that of the control) in [2] (60 cell, range over the NCI 60 cell lines (Table 6), read-out: growth inhibition (GI50)) is 10 to 1890 nM; in [2] (786-0, Renal Cancer, 786-0, read-out: GI50), 97.2 nM; in experiment [2] (A498, Renal Cancer, A498, read-out: GI50), less than 10 nM; in experiment [2] (A549, Non-Small Cell Lung Cancer, A549/ATCC, read-out: GI50), 388 nM; in [2] (ACHN, Renal Cancer, ACHN, read-out: GI50) it was 190 nM; in experiment [2] (BT-549, Breast Cancer, BT-549, read-out: GI50) it was 268 nM. In addition, the GI50 is 901 nM in [2] (CAKI-1, Renal Cancer, CAKI-1, read-out: GI50); less than 10 nM in experiment [2] (CCRF-CEM, Leukemia, CCRF-CEM, read-out: GI50); 85.9 nM in experiment [2] (COLO 205, Colon Cancer, COLO 205, read-out: GI50); 288 nM in [2] (DU-145, Prostate Cancer, DU-145, read-out: GI50); 1420 nM in experiment [2] (HCC 2998, Colon Cancer, HCC-2998, read-out: GI50); 397 nM in experiment [2] (HCT-15, Colon Cancer, HCT-15, read-out: GI50). Besides, the GI50 in [2] (HCT-116, Colon Cancer, HCT-116, read-out: GI50) was determined as 40.1 nM; in [2] (HL-60, Leukemia, HL-60(TB), read-out: GI50), 1430 nM; in experiment [2] (HOP-62, Non-Small Cell Lung Cancer, HOP-62, read-out: GI50), 91.4 nM; in experiment [2] (HOP-92, Non-Small Cell Lung Cancer, HOP-92, read-out: GI50) it was 22.4 nM; in [2] (HT-29, Colon Cancer, HT29, read-out: GI50), 96.3 nM; in experiment [2] (Hs-578T, Breast Cancer, HS 578T, read-out: GI50), 13 nM. For the same molecule, the GI50 is 47.2 nM in experiment [2] (IGROV-1, Ovarian Cancer, IGROV1, read-out: GI50); less than 10 nM in experiment [2] (K562, Leukemia, K-562, read-out: GI50); less than 10 nM in experiment [2] (KM12, Colon Cancer, KM12, read-out: GI50); 34.3 nM in experiment [2] (LOX IMVI, Melanoma, LOX IMVI, read-out: GI50); less than 10 nM in experiment [2] (MCF7, Breast Cancer, MCF7, read-out: GI50); 227 nM in [2] (MDA-MB-231, Breast Cancer, MDA-MB-231/ATCC, read-out: GI50). Also, the GI50 in [2] (MDA-MB-435, Melanoma, MDA-MB-435, read-out: GI50) worked out at 354 nM; in experiment [2] (MDA-MB-468, Breast Cancer, MDA-MB-468, read-out: GI50), 39.2 nM; in [2] (MOLT-4, Leukemia, MOLT-4, read-out: GI50) it was 48.1 nM; in experiment [2] (Malme-3M, Melanoma, MALME-3M, read-out: GI50), 132 nM; in [2] (Melanoma, M14, read-out: GI50), 166 nM; in experiment [2] (NCI-H23, Non-Small Cell Lung Cancer, NCI-H23, read-out: GI50) it was 153 nM. In addition, the GI50 in experiment [2] (NCI-H226, Non-Small Cell Lung Cancer, NCI-H226, read-out: GI50) is less than 10 nM; in experiment [2] (NCI-H322M, Non-Small Cell Lung Cancer, NCI-H322M, read-out: GI50) it was 915 nM; in experiment [2] (NCI-H460, Non-Small Cell Lung Cancer, NCI-H460, read-out: GI50), 86.9 nM; in [2] (NCI-H522, Non-Small Cell Lung Cancer, NCI-H522, read-out: GI50) it was 72.2 nM; in [2] (NCI/ADR-RES, Ovarian Cancer, NCI/ADR-RES, read-out: GI50) it was 1540 nM; in experiment [2] (OVCAR-3, Ovarian Cancer, OVCAR-3, read-out: GI50) it was 1070 nM. Further, the GI50 in experiment [2] (OVCAR-4, Ovarian Cancer, OVCAR-4, read-out: GI50) was 1550 nM; in [2] (OVCAR-5, Ovarian Cancer, OVCAR-5, read-out: GI50) it was 171 nM; in [2] (OVCAR-8, Ovarian Cancer, OVCAR-8, read-out: GI50), 187 nM; in experiment [2] (Prostate Cancer, PC-3, read-out: GI50), 1270 nM; in [2] (RPMI-8226, Leukemia, RPMI-8226, read-out: GI50) it was 1890 nM; in experiment [2] (RXF 393, Renal Cancer, RXF 393, read-out: GI50), 18.4 nM. The GI50 in [2] (SF530, CNS Cancer, SF-530, read-out: GI50) stood at 65.8 nM; in experiment [2] (SF-268, CNS Cancer, SF-268, read-out: GI50), 87.7 nM; in experiment [2] (SF-295, CNS Cancer, SF-295, read-out: GI50), 91 nM; in [2] (SK-MEL-2, Melanoma, SK-MEL-2, read-out: GI50) it was 1420 nM; in experiment [2] (SK-MEL-5, Melanoma, SK-MEL-5, read-out: GI50) it was 1270 nM; in experiment [2] (SK-MEL-28, Melanoma, SK-MEL-28, read-out: GI50) it was 342 nM. Besides, the GI50 in experiment [2] (SK-OV-3, Ovarian Cancer, SK-OV-3, read-out: GI50) is 421 nM; in [2] (SN12C, Renal Cancer, SN12C, read-out: GI50), 48.7 nM; in experiment [2] (SNB-19, CNS Cancer, SNB-19, read-out: GI50), 205 nM; in [2] (SNB-75, CNS Cancer, SNB-75, read-out: GI50), 15.8 nM; in experiment [2] (SW-620, Colon Cancer, SW-620, read-out: GI50), 44.1 nM; in [2] (T47D, Breast Cancer, T-47D, read-out: GI50), 1030 nM. Besides, the GI50 in experiment [2] (U-251, CNS Cancer, U251, read-out: GI50) came to 103 nM; in experiment [2] (UACC-62, Melanoma, UACC-62, read-out: GI50) it was 502 nM; in experiment [2] (UACC-257, Melanoma, UACC-257, read-out: GI50), 388 nM; in [2] (UO-31, Renal Cancer, UO-31, read-out: GI50), 81 nM.
Consider `C/C=C/c1cc(Nc2cc(N3CCN(C)CC3)nc(Oc3cc(F)c4[nH]c(C)cc4c3F)n2)n[nH]1` [NTW-3456], for which the antiproliferative activity entry in experiment [2] (cell lines from the NCI 60 panel) is “Anti-proliferative activity”.
